Patent US11479802B2, “Assays for screening activity of modulators of members of the hydroxy steroid (17-beta) dehydrogenase (HSD17B) family” (Regeneron Pharmaceuticals, Inc., priority 2017, dated 2022)

Target: T1, human HSD17B13 (Homo sapiens, UniProt Q7Z5P4)
T1 sequence (Q7Z5P4 20-300): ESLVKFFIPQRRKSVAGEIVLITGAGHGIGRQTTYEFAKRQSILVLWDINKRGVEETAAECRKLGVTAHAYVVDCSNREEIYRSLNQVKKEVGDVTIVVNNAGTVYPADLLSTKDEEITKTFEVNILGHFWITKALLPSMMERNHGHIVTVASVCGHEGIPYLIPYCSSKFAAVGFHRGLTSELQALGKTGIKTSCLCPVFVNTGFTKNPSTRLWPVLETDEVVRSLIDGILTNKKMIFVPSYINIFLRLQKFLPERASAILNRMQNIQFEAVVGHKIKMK
Assay: Substrate screening of steroid and bioactive lipid libraries against purified recombinant HSD17B13 (NADH-linked luciferase assay)
Assay type: biochemical
Conditions: Bioactive Lipid Library; for HSD17B13 Enzymatic Activity Relative Light Units: 5 μM bioactive lipid (Estradiol Control 50 μM), 500 μM NAD+, 100 ng enzyme, 3 hours at 23° C.; for HSD17B13 Enzymatic Activity Percent Estradiol Control: 5 μM bioactive lipid, normalized to 50 μM estradiol after subtraction of 5% DMSO
Experimental: To understand the functional consequences of premature truncation of the HSD17B13 protein due to rs72613567:TA (the associated variant, rs72613567, is an insertion of an adenine adjacent to the donor splice site of exon six (TA allele)), the enzymatic activity of isoforms A and D was evaluated in vitro using recombinant protein and nicotinamide […] dinucleotide as cofactor. Reactions were performed in a final volume of 40 μl of assay buffer (0.2 M Tris-HCl, pH 7.5) which contained 500 μM NAD^+, 5 μM bioactive lipid or 50 μM steroid (all in a final concentration of 5% DMSO), and 100 ng of recombinant human HSD17B13. Reactions were incubated for 3 hours, at 23° C., after which an equal volume detection reagent was added. Following a 1 hour incubation at 23° C., the relative light units (RLUs) were measured on an Envision Plate Reader (Perkin Elmer). Raw RLU values were normalized as percent of control (50 μM estradiol) following subtraction of negative control (5% DMSO) using the following formula: Percent of control (POC)=100×(Sample (RLU)−Negative CTRLaverage)/(Positive CTRLaverage−Negative CTRLaverage).

Row | Compound | HSD17B13 Enzymatic Activity Relative Light Units [RLU] | HSD17B13 Enzymatic Activity Percent Estradiol Control [%]
1 | 15-deoxy-Δ12,14-Prostaglandin J2-biotin | 252400 | −2.43
2 | CC/C=C\C/C=C\C/C=C\C/C=C\C/C=C\CC1OC1CCC(=O)OC (racemic) [(±)4(5)-EpDPA methyl ester] | 338320 | 1.00
3 | CCCCC/C=C\C/C=C\C/C=C\CC(O)C1CCCC(=O)O1 (racemic) [(±)5(6)-DiHET lactone] | 411120 | 6.50
4 | CCCCCC=CCC=CCC=CCC(O)C(O)CCCC(=O)O (racemic) [(±)5(6)-DiHET] | 353120 | 4.93
5 | CCCCC/C=C\C/C=C\C/C=C\C[C@H]1O[C@H]1CCCC(=O)NCCO (racemic) [(±)5(6)-EET Ethanolamide] | 450160 | 9.45
6 | CCCCC/C=C\C/C=C\C/C=C\CC1OC1CCCC(=O)O (racemic) [(±)5(6)-EET] | 360960 | 5.51
7 | CC/C=C\C/C=C\C/C=C\C/C=C\C=C\C(O)CCCC(=O)O (racemic) [(±)5-HEPE] | 344480 | 4.85
8 | CCCCC/C=C\C/C=C\C/C=C\C=C\C1CCCC(=O)O1 (racemic) [(±)5-HETE lactone] | 348120 | 4.56
9 | CCCCC/C=C\C/C=C\C/C=C\C=C\[C@@H](O)CCCC(=O)OC (racemic) [(±)5-HETE methyl ester] | 337600 | 3.78
10 | CCCCC/C=C\C/C=C\C/C=C\C=C\[C@@H](O)CCCC(=O)O (racemic) [(±)5-HETE] | 431960 | 10.79
11 | CC/C=C\C/C=C\C/C=C\C/C=C\C=C\C(O)C/C=C\CCC(=O)O (racemic) [(±)7-HDHA] | 361320 | 5.54
12 | CCCCC/C=C\C/C=C\CC(O)C(O)C/C=C\CCCC(=O)O (racemic) [(±)8(9)-DiHET] | 472120 | 11.11
13 | CC/C=C\C/C=C\C/C=C\C/C=C\CC(O)/C=C/C=C\CCC(=O)O (racemic) [(±)8-HDHA] | 773120 | 36.16
14 | CC/C=C\C/C=C\C/C=C\C=C\C(O)C/C=C\CCCC(=O)O (racemic) [(±)8-HEPE] | 472800 | 13.83
15 | CCCCC/C=C\CC(/C=C/C=C\C/C=C\CCCC(=O)O)OO (racemic) [(±)12-HpETE] | 165800 | −9.27
16 | CC/C=C\CC(O)/C=C/C=C\C/C=C\C/C=C\CCCC(=O)O (racemic) [(±)15-HEPE] | 578600 | 21.70

The remaining lines, values ahead:

Row | HSD17B13 Enzymatic Activity Relative Light Units [RLU] | HSD17B13 Enzymatic Activity Percent Estradiol Control [%] | Compound
17 | 592720 | 22.75 | CCCCC/C=C\C/C=C\C=C\C(O)C/C=C\CCCC(=O)O (racemic) [(±)8-HETE]
18 | 391000 | 4.98 | CCCCC/C=C\CC(O)C(O)CCCCCCCC(=O)O (racemic) [(±)9(10)-DiHOME]
19 | 354560 | 2.23 | CCCCC/C=C\CC1OC1CCCCCCCC(=O)O (racemic) [(±)9(10)-EpOME]
20 | 699960 | 30.72 | CC/C=C\C/C=C\C/C=C\CC(O)/C=C/C=C\CCCC(=O)O (racemic) [(±)9-HEPE]
21 | 1110120 | 61.22 | CCCCC/C=C\C/C=C\CC(O)/C=C/C=C\CCCC(=O)O (racemic) [(±)9-HETE]
22 | 695320 | 30.38 | CCCCC/C=C\C=C\C(O)CCCCCCCC(=O)O (racemic) [(±)9-HODE]
23 | 801680 | 38.28 | CC/C=C\C/C=C\C/C=C\C=C\C(O)C/C=C\C/C=C\CCC(=O)O (racemic) [(±)10-HDHA]
24 | 599000 | 20.69 | CCCCC/C=C\CC(O)C(O)C/C=C\C/C=C\CCCC(=O)O (racemic) [(±)11(12)-DiHET]
25 | 1259280 | 72.31 | CC/C=C\C/C=C\C/C=C\CC(O)/C=C/C=C\C/C=C\CCC(=O)O (racemic) [(±)11-HDHA]
26 | 1334080 | 77.87 | CCCCC/C=C\C=C\[C@H](O)CCCCCCCCCC(=O)O (racemic) [(±)11-HEDE]
27 | 791920 | 37.56 | CC/C=C\C/C=C\C=C\C(O)C/C=C\C/C=C\CCCC(=O)O (racemic) [(±)11-HEPE]
28 | 767720 | 35.76 | CCCCC/C=C\C=C\C(O)C/C=C\C/C=C\CCCC(=O)O (racemic) [(±)11-HETE]
29 | 761600 | 35.30 | CC/C=C\C/C=C\CC(O)/C=C/C=C\C/C=C\CCCC(=O)O (racemic) [(±)12-HEPE]
30 | 1324640 | 77.17 | CCCCC/C=C\C[C@H](O)/C=C/C=C\C/C=C\CCCC(=O)O (racemic) [(±)12-HETE]
31 | 1154720 | 64.54 | CC/C=C\C/C=C\C=C\C(O)C/C=C\C/C=C\C/C=C\CCC(=O)O (racemic) [(±)13-HDHA]
32 | 954080 | 49.62 | CCCCCC(O)/C=C/C=C\CCCCCCCC(=O)O (racemic) [(±)13-HODE]
33 | 356480 | 2.37 | CC/C=C\CC(O)C(O)C/C=C\C/C=C\C/C=C\CCCC(=O)O (racemic) [(±)14(15)-DiHETE]
34 | 403560 | 5.93 | CCCCCC(O)C(O)C/C=C\C/C=C\C/C=C\CCCC(=O)O (racemic) [(±)14(15)-DiHET]
35 | 305720 | 1.41 | CCCCCC1OC1C/C=C\C/C=C\C/C=C\CCCC(=O)O (racemic) [(±)14(15)-EET]
36 | 306600 | 1.86 | CC/C=C\CC1OC1C/C=C\C/C=C\C/C=C\CCCC(=O)O (racemic) [(±)14(15)-EpETE]
37 | 1430720 | 85.06 | CCCCCC(O)/C=C/C=C\CCCCCCCCCC(=O)O (racemic) [(±)15-HEDE]
38 | 47880 | 30.81 | CCCCC[C@H](O)/C=C/C=C\C/C=C\C/C=C\CCCC(=O)O (racemic) [(±)15-HETE]
39 | 274120 | −0.71 | CC/C=C\C[C@H]1O[C@H]1C/C=C\C/C=C\C/C=C\C/C=C\CCC(=O)O (racemic) [(±)16(17)-EpDPA]
